Measurements reported in ChEMBL document CHEMBL4402608 (J Med Chem, 2020).

Experiments:
Type in all cases: cell-based
[1] = target: T1, D(2) dopamine receptor (Homo sapiens, UniProt P14416); test: Antagonist activity at human D2R expressed in CHOK1 cells assessed as inhibition of dopamine-induced beta-arrestin recruitment measured after 120 mins by beta-galactosidase based PathHunter assay
[2] = target: D(3) dopamine receptor (Homo sapiens, UniProt P35462); test: Agonist activity at human D3R expressed in CHOK1 cells assessed as induction of beta-arrestin recruitment measured after 90 mins by beta-galactosidase based PathHunter assay
[3] = target: T1, D(2) dopamine receptor; test: Agonist activity at human D2R expressed in CHOK1 cells assessed as induction of beta-arrestin recruitment measured after 90 mins by beta-galactosidase based PathHunter assay

Row | SMILES | IC50 ([1]; read-out: IC50) [µM] | EC50 ([2]; read-out: EC50) [nM] | EC50 [3] | EC50 ([3]; read-out: EC50) [nM] | IC50 [1] | EC50 [2]
1 | O=C(c1cc2ccccc2[nH]1)N1CCN(CCOc2ccncc2)CC1 | > 100 | 472 | Not Active |  |  | 
2 | COc1ccc(OCCC2CCN(C(=O)c3ccc(OC)cc3)CC2)cc1 |  |  | Not Active |  | Not Active | Not Active
3 | COc1cccc(OCCN2CCN(C(=O)c3cc4cccnc4[nH]3)CC2)c1 |  | 50 |  | 128 | Not Active | 
4 | O=C(c1n[nH]c2ccccc12)N1CCN(CCOc2cccnc2)CC1 |  |  |  | 4100 | Not Active | 
5 | O=C(c1cc2ccccc2[nH]1)N1CCN(CCOc2ccc3[nH]ccc3c2)CC1 |  | 60.9 |  |  |  | 
6 | Cc1cc(OCCN2CCN(C(=O)c3cc4ccccc4[nH]3)CC2)ccc1Cl |  | 114 |  |  |  | 
7 | Cc1ccc2[nH]c(C(=O)N3CCN(CCOc4cccnc4)CC3)cc2c1 |  | 13 |  | 1300 | Not Active | 
8 | COc1ccc(OCCN2CCN(C(=O)c3cc4ccccc4[nH]3)CC2)c(Cl)c1 | > 10 | 41 | Not Active |  |  | 
9 | O=C(c1cc2c(Cl)cccc2[nH]1)N1CCN(CCOc2cccnc2)CC1 |  |  |  | 217 | Not Active | 
10 | O=C(c1ccc[nH]1)N1CCN(CCOc2cccnc2)CC1 | > 100 | 118 |  | 6100 |  | 
11 | O=C(c1cc2ccccc2s1)N1CCN(CCOc2cccnc2)CC1 |  | 13.3 |  |  |  | 
12 | O=C(c1cc2ccncc2[nH]1)N1CCN(CCOc2cccnc2)CC1 |  | 81 |  |  |  | 
13 | O=C(c1cc2ccccc2[nH]1)N1CCN(CCOc2ccc3c(c2)OCO3)CC1 |  | 290 |  |  |  | 
14 | COc1ccc(OCCN2CCN(C(=O)c3cc4ccccc4[nH]3)CC2)cc1OC | > 50 | 710 | Not Active |  |  | 
15 | O=C(c1cc2ncccc2[nH]1)N1CCN(CCOc2cccnc2)CC1 |  | 200 |  | 3000 | Not Active | 
16 | O=C(c1nc2ccccc2[nH]1)N1CCN(CCOc2cccnc2)CC1 |  |  |  | 2400 | Not Active | 
17 | COc1cccc(OCCN2CCN(C(=O)c3cc4cc(OC)ccc4[nH]3)CC2)c1 |  | 284 |  | 1700 | Not Active | 
18 | O=C(c1cc2ccccc2[nH]1)N1CCN(CCOc2ccccn2)CC1 | > 100 | 3500 | Not Active |  |  | 

Row | SMILES | IC50 ([1]; read-out: IC50) [µM] | EC50 ([2]; read-out: EC50) [nM] | EC50 [3] | EC50 ([3]; read-out: EC50) [nM] | IC50 [1] | EC50 [2]
19 | COc1ccc(OCCN(C)CCN(C)C(=O)c2ccc(OC)cc2)cc1 |  |  |  |  |  | Not Active
20 | COc1ccc(OCCC2CCN(C(=O)c3cc4ccccc4[nH]3)CC2)cc1 |  |  | Not Active |  | Not Active | Not Active
21 | O=C(c1cc2ccc(Cl)cc2[nH]1)N1CCN(CCOc2cccnc2)CC1 |  |  |  | 183 | Not Active | 
22 | COc1ccc(OCCN2CCN(C(=O)C3CCCCC3)CC2)cc1 | > 50 | > 50000 | Not Active |  |  | 
23 | COc1ccc(OCCN2CCN(S(=O)(=O)c3ccc(OC)cc3)CC2)cc1 |  |  |  | > 100000 | Not Active | Not Active
24 | O=C(c1cc2ccccc2o1)N1CCN(CCOc2cccnc2)CC1 |  | 42 |  | 1700 | Not Active | 
25 | COc1ccc(OCC(C)N2CCN(C(=O)c3ccc(OC)cc3)CC2)cc1 (racemic) | > 100 |  | Not Active |  |  | 
26 | O=C(c1cc2cccc(Cl)c2[nH]1)N1CCN(CCOc2cccnc2)CC1 |  |  |  | 617 | Not Active | 
27 | O=C(c1cc2ccccc2[nH]1)N1CCN(CCOc2cncc(Cl)c2)CC1 |  | 5 |  | 790 | Not Active | 
28 | O=C(c1cc2ccccc2[nH]1)N1CCN(CCOc2cccnc2)CC1 |  | 7 |  | 570 | Not Active | 
29 | COc1ccc2cc(C(=O)N3CCN(CCOc4cccnc4)CC3)[nH]c2c1 |  | 6.4 |  |  |  | 
30 | COc1ccc(OCCN2CCN(C(=O)c3ccc(OC)cc3)C(C)C2)cc1 (stereo not given) | > 100 |  |  | 4200 |  | 
31 | Cc1cccc2cc(C(=O)N3CCN(CCOc4cccnc4)CC3)[nH]c12 |  | 25.7 |  |  |  | 
32 | Cc1c(C(=O)N2CCN(CCOc3cccnc3)CC2)[nH]c2ccccc12 |  | 80 |  |  |  | 
33 | Cc1cccc2[nH]c(C(=O)N3CCN(CCOc4cccnc4)CC3)cc12 |  |  |  | 180 | Not Active | 
34 | COc1ccc(N(C)CCN2CCN(C(=O)c3cc4ccccc4[nH]3)CC2)cc1 | > 100 |  | Not Active |  |  | 
35 | O=C(c1cc2cc(Cl)ccc2[nH]1)N1CCN(CCOc2cccnc2)CC1 |  |  |  | 1400 | Not Active | 

The next lines start with the values.

Row | IC50 ([1]; read-out: IC50) [µM] | EC50 ([2]; read-out: EC50) [nM] | EC50 [3] | EC50 ([3]; read-out: EC50) [nM] | IC50 [1] | EC50 [2] | SMILES
36 | > 100 | 17 |  | 2900 |  |  | COc1ccc(C(=O)N2CCN(CCOc3cccnc3)CC2)cc1
37 | > 50 | 548 | Not Active |  |  |  | COc1ccc(OCCN2CCN(C(=O)c3ccccc3)CC2)cc1
38 |  |  |  | 2600 | Not Active |  | COc1ccc2[nH]c(C(=O)N3CCN(CCOc4cccnc4)CC3)cc2c1
39 | > 100 | 151 |  | > 50000 |  |  | Cc1ccc(OCCN2CCN(C(=O)c3cc4ccccc4[nH]3)CC2)cc1
40 | > 50 | 114 | Not Active |  |  |  | O=C(c1cc2ccccc2[nH]1)N1CCN(CCOc2ccc(Cl)cc2)CC1
41 |  |  |  |  |  | Not Active | COc1ccc(OCCCN2CCN(C(=O)c3cc4ccccc4[nH]3)CC2)cc1
42 |  | 98 |  |  |  |  | COc1ccc(C(=O)N2CCN(CCOc3cccc(OC)c3)CC2)cc1
43 |  |  |  |  |  | Not Active | COc1ccc(OCCCCN2CCN(C(=O)c3cc4ccccc4[nH]3)CC2)cc1
44 | > 100 |  | Not Active |  |  |  | O=C(c1cc2ccccc2[nH]1)N1CCN(CCOc2ccc(Br)cc2)CC1
45 |  | 285 |  |  |  |  | COc1cccc(OCCN2CCN(C(=O)c3nc4ccccc4[nH]3)CC2)c1
46 | > 100 | 576 |  | 5500 |  |  | COc1ccc(OCCN2CCN(C(=O)c3cc4cnccc4[nH]3)CC2)cc1
47 | > 50 |  | Not Active |  |  | Not Active | COc1ccc(C(=O)N2CCN(CCOc3cc(OC)cc(OC)c3)CC2)cc1
48 |  | 3300 |  |  |  |  | COc1ccc(OCCN2CCN(C(=O)c3cc4ccccc4s3)CC2)cc1
49 |  | 9700 | Not Active |  | Not Active |  | COc1ccc(OCCN2CCN(C(C)=O)CC2)cc1
50 | 4.6 |  |  | 2500 |  |  | COc1ccc(OCCN2CCN(C(=O)c3ccc4[nH]ccc4c3)CC2)cc1
51 | > 10 | 980 |  | 6000 |  |  | COc1ccc(OCCN2CCN(C(=O)c3cc4cccc(OC)c4[nH]3)CC2)cc1
52 |  | 37.6 |  | 6200 | Not Active |  | Cn1c(C(=O)N2CCN(CCOc3cccnc3)CC2)cc2ccccc21
53 | > 50 | 192 | Not Active |  |  |  | COc1ccc(OCCN2CCN(C(=O)c3nc4ccccc4[nH]3)CC2)cc1
54 | > 100 | 630 | Not Active |  |  |  | CSc1ccc(OCCN2CCN(C(=O)c3cc4ccccc4[nH]3)CC2)cc1
55 |  |  | Not Active |  | Not Active |  | O=C(c1cc2ccccc2[nH]1)N1CCN(CCOc2ccc([N+](=O)[O-])cc2)CC1
56 |  | 278 |  |  |  |  | COc1ccc(C(=O)N2CCN(CCOc3ccccc3OC)CC2)cc1

Row | IC50 ([1]; read-out: IC50) [µM] | EC50 ([2]; read-out: EC50) [nM] | EC50 [3] | EC50 ([3]; read-out: EC50) [nM] | IC50 [1] | EC50 [2] | SMILES
57 | > 100 | 1900 |  | 4400 |  |  | COc1ccc(OCCN2CCN(C(=O)c3[nH]c4ccccc4c3C)CC2)cc1
58 |  | 167 |  |  |  |  | COc1ccc(OCCN2CCN(C(=O)c3cc4cccnc4[nH]3)CC2)cc1
59 | > 100 |  | Not Active |  |  | Not Active | COc1ccc(SCCN2CCN(C(=O)c3cc4ccccc4[nH]3)CC2)cc1
60 |  |  | Not Active |  | Not Active | Not Active | COc1ccc(OCCN2CCN(CC(=O)c3cc4ccccc4[nH]3)CC2)cc1
61 | > 100 |  |  | 2300 |  |  | COc1ccc(C(=O)N2CCN(CCOc3ccccc3)CC2)cc1
62 |  | 266 |  |  |  |  | COc1ccc(OCCN2CCN(C(=O)c3cc4c(C)cccc4[nH]3)CC2)cc1
63 | > 100 | 520 |  | 7800 |  |  | COc1ccc(OCCN2CCN(C(=O)c3cc4cc(OC)ccc4[nH]3)CC2)cc1
64 | > 100 |  | Not Active |  |  | Not Active | CC(C)(C)c1ccc(OCCN2CCN(C(=O)c3cc4ccccc4[nH]3)CC2)cc1
65 | > 100 | 2100 |  | > 50000 |  |  | COc1ccc(OCCN2CCN(C(=O)c3ccc(OC)cn3)CC2)cc1
66 | > 100 | 810 |  | 7800 |  |  | COc1ccc(OCCN2CCN(C(=O)c3cc4ccncc4[nH]3)CC2)cc1
67 |  |  | Not Active |  | Not Active |  | COc1ccc(OCCN2CCN(C(=O)c3cc4cc(Cl)ccc4[nH]3)CC2)cc1
68 | > 100 | > 100000 | Not Active |  |  |  | CCOc1ccc(OCCN2CCN(C(=O)c3cc4ccccc4[nH]3)CC2)cc1
69 | > 50 |  | Not Active |  |  |  | CCc1ccc(OCCN2CCN(C(=O)c3cc4ccccc4[nH]3)CC2)cc1
70 | > 100 |  |  | 5200 |  |  | COc1ccc(OCCN2CCN(C(=O)c3cc4c(OC)cccc4[nH]3)CC2)cc1
71 | > 100 | 3800 |  | > 100000 |  |  | O=C(c1cc2ccccc2[nH]1)N1CCN(CCOc2ccc(OC(F)(F)F)cc2)CC1
72 |  | 22000 | Not Active |  | Not Active |  | COc1ccc(OCCN2CCN(C(=O)c3ccncc3)CC2)cc1
73 |  | 550 |  |  |  |  | COc1ccc(OCCN2CCN(C(=O)c3cccc(OC)c3)CC2)cc1
74 |  | 210 |  |  |  |  | COc1ccc(OCCN2CCN(C(=O)c3c[nH]c4ccccc34)CC2)cc1
75 |  | 33.8 |  |  |  |  | COc1cccc(OCCN2CCN(C(=O)c3cc4ccccc4[nH]3)CC2)c1
76 |  |  |  | > 100000 | Not Active |  | COc1ccc(OCCN2CCN(C(=O)c3cc4ncccc4[nH]3)CC2)cc1
77 |  | 225 |  |  |  |  | COc1ccc(OCCN2CCN(C(=O)c3cc4ccc(Cl)cc4[nH]3)CC2)cc1
